The target in test [1] is Coagulation factor X (Homo sapiens) (UniProt P00742). The test can be described thus: Factor Xa (h) Protease assay. Conditions: Compound concentration 10.0 uM.
The target in test [2] is T1, Mucosa-associated lymphoid tissue lymphoma translocation protein 1 (Homo sapiens, UniProt Q9UDY8).
T1 sequence (Q9UDY8 whole entry): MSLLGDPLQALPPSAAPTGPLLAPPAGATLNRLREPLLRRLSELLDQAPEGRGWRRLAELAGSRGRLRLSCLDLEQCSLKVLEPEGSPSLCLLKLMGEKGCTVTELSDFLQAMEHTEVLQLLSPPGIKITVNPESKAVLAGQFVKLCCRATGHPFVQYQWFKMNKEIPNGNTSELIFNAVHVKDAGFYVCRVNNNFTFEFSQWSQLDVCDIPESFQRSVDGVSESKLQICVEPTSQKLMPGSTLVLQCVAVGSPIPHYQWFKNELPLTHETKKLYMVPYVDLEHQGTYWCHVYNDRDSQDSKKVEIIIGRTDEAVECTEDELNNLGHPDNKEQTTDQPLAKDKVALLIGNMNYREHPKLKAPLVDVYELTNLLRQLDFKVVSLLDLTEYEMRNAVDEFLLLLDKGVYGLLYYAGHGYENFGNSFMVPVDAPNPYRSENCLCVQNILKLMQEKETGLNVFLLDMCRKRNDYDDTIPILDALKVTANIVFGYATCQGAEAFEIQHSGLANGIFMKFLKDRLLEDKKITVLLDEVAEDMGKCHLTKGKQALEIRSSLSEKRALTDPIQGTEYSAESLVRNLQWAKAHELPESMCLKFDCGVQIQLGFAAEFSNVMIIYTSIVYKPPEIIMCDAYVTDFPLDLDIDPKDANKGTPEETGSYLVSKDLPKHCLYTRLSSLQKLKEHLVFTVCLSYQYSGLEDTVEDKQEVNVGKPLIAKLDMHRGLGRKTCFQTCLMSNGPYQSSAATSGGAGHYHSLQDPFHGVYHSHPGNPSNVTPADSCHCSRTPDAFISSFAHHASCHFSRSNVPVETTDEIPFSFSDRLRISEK
The test is described as follows: Human biochemical (TR-FRET) assay (low salt).

The target of test [3] is Beta-2 adrenergic receptor (Homo sapiens) (UniProt P07550). To be noted: Compound concentration 10.0 uM.
For test [4], the target named is Chymase (Homo sapiens) (UniProt P23946). The test can be described thus: Chymase (h) Protease assay. To be noted: Compound concentration 10.0 uM.
Sequence of Chymase (Homo sapiens) (P23946 whole entry): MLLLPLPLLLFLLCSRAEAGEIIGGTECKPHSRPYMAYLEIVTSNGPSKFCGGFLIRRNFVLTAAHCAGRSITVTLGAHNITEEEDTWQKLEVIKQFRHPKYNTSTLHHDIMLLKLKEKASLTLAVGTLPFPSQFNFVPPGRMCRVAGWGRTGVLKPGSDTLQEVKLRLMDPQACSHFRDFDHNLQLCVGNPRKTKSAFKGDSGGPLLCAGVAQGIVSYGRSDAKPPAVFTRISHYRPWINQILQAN
Test [5] addresses Coagulation factor VII (Homo sapiens) (UniProt P08709). The test can be described thus: Factor VIIa (h) Protease assay. To be noted: Compound concentration 10.0 uM.
The target of test [6] is T1, Mucosa-associated lymphoid tissue lymphoma translocation protein 1. The test is described as follows: IL-2 – PMA + anti-CD28 + 50% Rat whole blood. In kind it is tissue-based. To be noted: target entry is the homologue from another species.
Test [7] deals with Prothrombin (Homo sapiens) (UniProt P00734). The test is described as follows: Thrombin (h) Protease assay. Conditions: Compound concentration 10.0 uM.
Test [8] addresses Plasma kallikrein (Homo sapiens) (UniProt P03952). The test is described as follows: Plasma Kallikrein Protease assay. To be noted: Compound concentration 10.0 uM.
The target in test [9] is Receptor-type tyrosine-protein kinase FLT3 (Homo sapiens, UniProt P36888). The test is described as follows: Kinase panel. On the set-up: compound concentration 10 uM.
Sequence of Receptor-type tyrosine-protein kinase FLT3 (P36888 whole entry): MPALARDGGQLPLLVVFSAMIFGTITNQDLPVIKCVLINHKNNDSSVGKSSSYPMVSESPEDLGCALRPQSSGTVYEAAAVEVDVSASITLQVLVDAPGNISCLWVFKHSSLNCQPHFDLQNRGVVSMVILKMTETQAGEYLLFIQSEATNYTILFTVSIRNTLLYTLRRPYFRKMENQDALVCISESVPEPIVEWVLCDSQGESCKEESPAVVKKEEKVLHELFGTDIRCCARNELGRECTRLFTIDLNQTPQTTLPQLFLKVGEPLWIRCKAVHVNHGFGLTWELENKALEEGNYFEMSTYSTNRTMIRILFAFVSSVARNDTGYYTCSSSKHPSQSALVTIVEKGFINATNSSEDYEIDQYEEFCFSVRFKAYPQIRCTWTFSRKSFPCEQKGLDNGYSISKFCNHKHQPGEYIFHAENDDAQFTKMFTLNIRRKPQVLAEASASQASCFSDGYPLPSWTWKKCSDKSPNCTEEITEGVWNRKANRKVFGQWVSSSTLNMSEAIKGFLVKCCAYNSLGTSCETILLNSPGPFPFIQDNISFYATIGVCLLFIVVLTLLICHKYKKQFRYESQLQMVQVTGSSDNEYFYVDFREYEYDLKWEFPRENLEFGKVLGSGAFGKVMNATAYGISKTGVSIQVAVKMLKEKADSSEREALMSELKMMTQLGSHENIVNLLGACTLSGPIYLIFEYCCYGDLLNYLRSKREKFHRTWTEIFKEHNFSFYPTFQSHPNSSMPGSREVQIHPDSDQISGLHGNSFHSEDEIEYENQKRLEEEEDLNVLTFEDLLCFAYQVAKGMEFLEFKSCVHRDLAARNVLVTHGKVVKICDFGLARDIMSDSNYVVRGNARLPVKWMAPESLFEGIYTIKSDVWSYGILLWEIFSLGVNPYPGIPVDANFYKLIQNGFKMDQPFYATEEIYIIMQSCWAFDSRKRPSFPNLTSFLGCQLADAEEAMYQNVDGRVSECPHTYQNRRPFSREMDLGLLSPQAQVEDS
In test [10] the target is Histamine H3 receptor (Homo sapiens) (UniProt Q9Y5N1). To be noted: Compound concentration 10.0 uM.
Sequence of Histamine H3 receptor (Homo sapiens) (Q9Y5N1 whole entry): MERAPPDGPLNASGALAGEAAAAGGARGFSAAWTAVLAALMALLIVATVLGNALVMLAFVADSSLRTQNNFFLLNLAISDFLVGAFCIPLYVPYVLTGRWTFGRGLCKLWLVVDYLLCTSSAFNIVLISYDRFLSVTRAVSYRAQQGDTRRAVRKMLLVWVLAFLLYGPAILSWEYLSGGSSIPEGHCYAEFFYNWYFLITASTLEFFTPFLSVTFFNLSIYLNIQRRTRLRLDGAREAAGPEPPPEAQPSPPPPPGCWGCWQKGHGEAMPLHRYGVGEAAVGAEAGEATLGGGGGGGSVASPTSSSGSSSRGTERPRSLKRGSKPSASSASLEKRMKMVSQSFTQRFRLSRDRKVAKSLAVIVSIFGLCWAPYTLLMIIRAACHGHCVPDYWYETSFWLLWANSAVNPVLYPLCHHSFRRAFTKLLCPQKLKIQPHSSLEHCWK
In test [11] the target is Trypsin (Homo sapiens) (UniProt P07477+P07478+P35030). The test is described as follows: Trypsin (h) Protease assay. It counts as protein assay. To be noted: Compound concentration 10.0 uM.
In test [12] the target is Cathepsin S (Homo sapiens) (UniProt P25774). The test is described as follows: Cathepsin S (h) Protease assay. Conditions: Compound concentration 10.0 uM.
Sequence of Cathepsin S (Homo sapiens) (P25774 115-331 limits assumed): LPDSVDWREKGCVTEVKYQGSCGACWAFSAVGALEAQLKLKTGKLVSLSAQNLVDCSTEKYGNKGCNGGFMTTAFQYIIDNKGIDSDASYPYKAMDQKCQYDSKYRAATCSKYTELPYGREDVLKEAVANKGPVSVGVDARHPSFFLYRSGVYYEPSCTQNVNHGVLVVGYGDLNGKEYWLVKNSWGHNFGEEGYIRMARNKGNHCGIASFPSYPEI
The target of test [13] is Cathepsin B (Homo sapiens) (UniProt P07858). The test is described as follows: Cathepsin B (h) Protease assay. Conditions: Compound concentration 10.0 uM.
In test [14] the target is Procathepsin L (Homo sapiens) (UniProt P07711). The test is described as follows: Cathepsin L (h) Protease assay. Conditions: Compound concentration 10.0 uM.
The target in test [15] is T1, Mucosa-associated lymphoid tissue lymphoma translocation protein 1. The test can be described thus: IL-2 – PMA + anti-CD28 + 50% Human whole blood. It counts as tissue-based.
The target of test [16] is Caspase-3 (Homo sapiens) (UniProt P42574). The test is described as follows: Caspase 3 (h) Protease assay. To be noted: Compound concentration 10.0 uM.
Test [17] concerns the target Beta-1 adrenergic receptor (Homo sapiens) (UniProt P08588). To be noted: Compound concentration 10.0 uM.
Test [18] concerns the target Cathepsin K (Homo sapiens) (UniProt P43235). The test can be described thus: Cathepsin K (h) Protease assay. Conditions: Compound concentration 10.0 uM.
Test [19] concerns the target Cathepsin G (Homo sapiens) (UniProt P08311). The test can be described thus: Cathepsin G (h) Protease assay. To be noted: Compound concentration 10.0 uM.
The target of test [20] is Neutrophil elastase (Homo sapiens) (UniProt P08246). The test can be described thus: Neutrophil elastase 2 (h) Protease assay. Conditions: Compound concentration 10.0 uM.
Sequence of Neutrophil elastase (Homo sapiens) (P08246 whole entry): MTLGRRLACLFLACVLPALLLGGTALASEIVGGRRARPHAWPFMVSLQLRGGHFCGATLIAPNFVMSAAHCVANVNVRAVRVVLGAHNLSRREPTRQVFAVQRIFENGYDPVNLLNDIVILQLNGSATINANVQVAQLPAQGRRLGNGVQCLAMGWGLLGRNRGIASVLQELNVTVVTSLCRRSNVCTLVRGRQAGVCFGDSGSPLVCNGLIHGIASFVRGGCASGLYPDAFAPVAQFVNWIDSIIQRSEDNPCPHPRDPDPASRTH
The target of test [21] is 5-hydroxytryptamine receptor 7 (Homo sapiens, UniProt P34969). The test is described as follows: GPCRScan assay: inhibition of 5-HT7A. The arrangement: radioligand conc. used [nm] 5.0 – 6.0, parental cells Stable HEK.
Sequence of 5-hydroxytryptamine receptor 7 (P34969 whole entry): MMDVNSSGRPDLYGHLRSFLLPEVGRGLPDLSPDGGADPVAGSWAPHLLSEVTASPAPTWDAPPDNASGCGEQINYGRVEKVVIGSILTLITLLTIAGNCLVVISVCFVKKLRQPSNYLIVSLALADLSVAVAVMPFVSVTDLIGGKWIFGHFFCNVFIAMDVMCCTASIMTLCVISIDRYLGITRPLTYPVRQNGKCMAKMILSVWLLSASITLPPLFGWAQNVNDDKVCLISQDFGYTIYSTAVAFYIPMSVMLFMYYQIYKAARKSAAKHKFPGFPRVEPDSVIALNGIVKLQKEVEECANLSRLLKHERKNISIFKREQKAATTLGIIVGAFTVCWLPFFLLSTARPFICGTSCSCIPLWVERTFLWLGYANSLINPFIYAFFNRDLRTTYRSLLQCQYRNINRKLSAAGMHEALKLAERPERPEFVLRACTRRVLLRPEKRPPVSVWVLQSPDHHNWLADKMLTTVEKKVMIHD
For test [22], the target named is Muscarinic acetylcholine receptor M1 (Homo sapiens) (UniProt P11229). To be noted: Compound concentration 10.0 uM.
Sequence of Muscarinic acetylcholine receptor M1 (Homo sapiens) (P11229 whole entry): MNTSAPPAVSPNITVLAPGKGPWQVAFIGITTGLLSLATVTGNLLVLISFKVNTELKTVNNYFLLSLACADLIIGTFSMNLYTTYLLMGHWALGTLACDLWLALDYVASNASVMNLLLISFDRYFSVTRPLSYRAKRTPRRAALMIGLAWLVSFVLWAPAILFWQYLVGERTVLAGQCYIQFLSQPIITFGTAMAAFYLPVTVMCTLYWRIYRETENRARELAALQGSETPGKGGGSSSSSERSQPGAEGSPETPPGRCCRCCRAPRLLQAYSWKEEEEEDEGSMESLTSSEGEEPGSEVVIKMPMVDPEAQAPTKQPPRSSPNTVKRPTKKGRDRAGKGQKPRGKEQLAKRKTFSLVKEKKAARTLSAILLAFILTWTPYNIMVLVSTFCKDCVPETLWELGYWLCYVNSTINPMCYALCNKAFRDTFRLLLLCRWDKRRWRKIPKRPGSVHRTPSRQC
Test [23] addresses Sigma intracellular receptor 2 (Homo sapiens, UniProt Q5BJF2). The test can be described thus: GPCRScan assay: inhibition of Sigma 2. On the set-up: radioligand conc. used [nm] 5.0, parental cells HEKT.

Active and inactive are the calls of the source. The calls are words filed in the database; no cut-off is given here.

Sequence of Plasma kallikrein (Homo sapiens) (P03952 20-390 limits assumed): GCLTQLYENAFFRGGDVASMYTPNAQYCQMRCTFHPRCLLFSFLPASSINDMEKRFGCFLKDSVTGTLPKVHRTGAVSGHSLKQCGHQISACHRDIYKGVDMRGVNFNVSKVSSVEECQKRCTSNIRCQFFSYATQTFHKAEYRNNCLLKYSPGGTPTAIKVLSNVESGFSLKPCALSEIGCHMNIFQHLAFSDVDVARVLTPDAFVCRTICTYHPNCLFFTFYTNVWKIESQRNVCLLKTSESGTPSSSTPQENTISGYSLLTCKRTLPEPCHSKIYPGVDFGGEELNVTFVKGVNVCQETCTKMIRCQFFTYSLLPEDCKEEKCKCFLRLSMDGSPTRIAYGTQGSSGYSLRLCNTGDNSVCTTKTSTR
Sequence of Plasma kallikrein (Homo sapiens) (P03952 391-638 limits assumed): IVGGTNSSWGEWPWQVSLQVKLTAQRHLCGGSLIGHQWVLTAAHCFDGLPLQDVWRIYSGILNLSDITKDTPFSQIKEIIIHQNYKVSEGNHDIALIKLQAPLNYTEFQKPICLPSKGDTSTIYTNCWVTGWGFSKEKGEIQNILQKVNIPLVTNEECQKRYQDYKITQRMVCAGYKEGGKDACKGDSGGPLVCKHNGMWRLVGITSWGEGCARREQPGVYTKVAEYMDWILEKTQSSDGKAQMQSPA
Sequence of Coagulation factor VII (Homo sapiens) (P08709 61-212 limits assumed): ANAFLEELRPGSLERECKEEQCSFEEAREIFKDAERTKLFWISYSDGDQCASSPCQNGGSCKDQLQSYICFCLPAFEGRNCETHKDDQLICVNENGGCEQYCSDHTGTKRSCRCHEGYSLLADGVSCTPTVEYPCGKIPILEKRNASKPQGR
Sequence of Coagulation factor VII (Homo sapiens) (P08709 213-466 limits assumed): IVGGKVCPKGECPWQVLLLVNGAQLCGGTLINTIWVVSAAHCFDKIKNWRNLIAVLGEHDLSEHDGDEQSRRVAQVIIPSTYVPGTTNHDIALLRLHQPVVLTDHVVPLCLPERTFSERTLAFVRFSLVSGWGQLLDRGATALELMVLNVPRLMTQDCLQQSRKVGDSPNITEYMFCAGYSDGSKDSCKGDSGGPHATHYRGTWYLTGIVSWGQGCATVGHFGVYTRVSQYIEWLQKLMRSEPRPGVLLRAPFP
Sequence of Sigma intracellular receptor 2 (Q5BJF2 whole entry): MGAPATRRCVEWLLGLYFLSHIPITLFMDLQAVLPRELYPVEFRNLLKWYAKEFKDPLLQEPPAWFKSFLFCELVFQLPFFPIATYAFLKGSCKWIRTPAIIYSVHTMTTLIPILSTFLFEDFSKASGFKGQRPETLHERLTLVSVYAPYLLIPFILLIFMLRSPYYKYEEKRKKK
Sequence of Cathepsin G (Homo sapiens) (P08311 whole entry): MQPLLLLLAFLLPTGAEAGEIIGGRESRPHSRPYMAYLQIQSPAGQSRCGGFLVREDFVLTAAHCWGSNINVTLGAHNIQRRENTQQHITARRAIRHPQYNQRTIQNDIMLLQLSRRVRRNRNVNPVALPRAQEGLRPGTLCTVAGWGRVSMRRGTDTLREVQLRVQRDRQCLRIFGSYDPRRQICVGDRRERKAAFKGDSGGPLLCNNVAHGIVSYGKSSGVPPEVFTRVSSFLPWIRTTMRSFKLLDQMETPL
Sequence of Cathepsin K (Homo sapiens) (P43235 whole entry): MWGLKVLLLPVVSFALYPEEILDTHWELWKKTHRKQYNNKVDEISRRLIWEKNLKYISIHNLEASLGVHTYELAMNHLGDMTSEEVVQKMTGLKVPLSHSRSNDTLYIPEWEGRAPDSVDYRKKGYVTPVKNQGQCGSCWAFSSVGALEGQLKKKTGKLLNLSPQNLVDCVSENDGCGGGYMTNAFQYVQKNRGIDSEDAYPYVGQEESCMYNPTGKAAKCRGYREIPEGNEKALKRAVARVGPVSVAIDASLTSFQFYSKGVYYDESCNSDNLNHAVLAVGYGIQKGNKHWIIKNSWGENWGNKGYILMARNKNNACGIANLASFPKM

Consider `CO[C@@H](C)c1c(Nc2ccc([C@H](N(C)C(=O)C3CCS(=O)(=O)CC3)C(F)(F)F)cc2)cnc2cc(Cl)nn12` [NVS-MALT1], for which the inhibition in test [1] was -9%; in [3], 26.7%; in test [4], -3%; in [5], -1%; in test [7] it was 0%; in test [8] it was 5%. In addition, the inhibition in [10] is -5.74%; in test [11], 0.8%; in test [12], 7%; in test [13], -4%; in test [14], -3%; in test [16] it was -1%. Further, the inhibition is 20.6% in [17], 2% in [18], 7% in test [19] and -1% in test [20]. Besides, the half-inhibitory concentration (IC50) was 18 nM (active) in [2], 130 nM (active) in test [6], 3500 nM (active) in test [9] and 200 nM (active) in [15].
As for `CO[C@@H](C)c1c(Nc2ccc([C@@H](N(C)C(=O)C3CCS(=O)(=O)CC3)C(F)(F)F)cc2)cnc2cc(Cl)nn12` [NVS-MALT1-C], the Ki in [21] turned out to be 10000 nM; in test [23] it was 890 nM. In test [22], the inhibition is -2.39%.

The record behind these values is ChEMBL document CHEMBL4507320, “Data for DCP probe NVS-MALT1” (2021).
